Source: US7501454B2, “Cyclohexenone compounds from Antrodia camphorata to treat autoimmune diseases” (Golden Biotechnology Corporation, priority 2007, dated 2009)

How the values were obtained:
female NZB/WF1 SLE mice [1] = assay: Changes of proteinuria in female NZB/WF1 SLE mice (Bio-Rad protein assay of urine); assay type: in vivo; settings: for proteinuria level: negative control 246 mg/dl
Method: (§1) Female NZB/WF1 mice spontaneously develop human SLE-like syndromes, such as generation of antinuclear autoantibodies, proteinuria, and renal toxicity to cause death. The disease is more severe in female mice than in male mice; the morbidity of female mice is also higher than that of male mice. Therefore, female NZB/WF1 mice were used for screening anti-SLE drugs in this study.
(§2) Thirty female NZB/WF1 mice (purchased from Jackson Lab, USA) between 12-24 weeks of age were analyzed biweekly to determine proteinuria levels, monthly to assess the titers of antinuclear autoantibody (ANA). The increased titers of ANA and positive response implicated that female NZB/WF1 mice were going to develop SLE and were ready for grouping. At 22 weeks of age, the animals showing the abovementioned syndromes were randomly divided into 3 groups (10 mice per group, water was administered to negative control group, steroid was given to positive control group, and cyclohexenone compounds of Antrodia camphorata was administered to experiment group), and the start time for the experiment was set as week zero. In addition, ten B6 mice (purchased from National Laboratory Animal Center, Taiwan) without SLE syndrome were normal mice served as blank group.
The blank group in Table 1 was B6 mice of no SLE syndrome, which received no treatment and normal diet for natural growth. NZB/WF1 female mice that were able to express SLE syndromes were served in negative control and positive control groups. Mice in the former group received normal water; in the latter were orally medicated with 1.25 mg/kg of prednisolone, the SLE drug. Mice in the experiment group were orally medicated with 50 mg/kg of cyclohexenone compounds from Example 1. […]
SLE patients develop renal inflammation and damage, which cause leakage of protein from kidney into the fluid. […] Ten μl of urine was assayed with Bio-Rad Protein Assay Dye Reagent Concentrate (Bio-Rad Laboratories, USA) and read under […] with an ELISA analyzer to determine the protein concentration with a standard curve.

female NZB/WF1 SLE mice [2] = assay: Titers of anti-dsDNA antinuclear antibodies in plasma of female NZB/WF1 SLE mice (Mouse Anti-dsDNA IgG ELISA kit); assay type: in vivo
Method: as §1, §2
The blank group in Table 1 was B6 mice of no SLE syndrome, which received no treatment and normal diet for natural growth. NZB/WF1 female mice that were able to express SLE syndromes were served in negative control and positive control groups. Mice in the former group received normal water; in the latter were orally medicated with 1.25 mg/kg of prednisolone, the SLE drug. Mice in the experiment group were orally medicated with 50 mg/kg of cyclohexenone compounds from Example 1. The mice were fed with the abovementioned substances once per day starting at 23 weeks of age, and this period of time was referred to as the first week of this experiment. […]
The titers of dsDNA antinuclear antibodies were determined in this study to assess the effects of cyclohexenone compounds from Antrodia camphorata on SLE mice. […]

Compound | proteinuria level (female NZB/WF1 SLE mice [1]; positive control group, prednisolone 1.25 mg/kg oral once per day, after 6 weeks) [mg/dL] | titer of anti-dsDNA antinuclear antibodies decreased to (female NZB/WF1 SLE mice [2]; positive group, prednisolone 1.25 mg/kg oral once per day, week 8) | proteinuria level (female NZB/WF1 SLE mice [1]; experiment group, 50 mg/kg oral once per day, after 6 weeks of experiment) [mg/dL] | fold increase of proteinuria level versus before experiment (female NZB/WF1 SLE mice [1]; experiment group, 50 mg/kg oral once per day, after 6 weeks, negative control 2.76-fold) [fold] | titers of anti-dsDNA antinuclear antibodies compared with negative group (female NZB/WF1 SLE mice [2]; experiment group, 50 mg/kg oral once per day, during 8 weeks of experiment) | titer of antinuclear antibodies decreased to (female NZB/WF1 SLE mice [2]; experiment group, 50 mg/kg oral once per day, week 8) [%]
C[C@]12C=CC(=O)C=C1CC[C@@H]1[C@@H]2[C@@H](O)C[C@@]2(C)[C@H]1CC[C@]2(O)C(=O)CO [prednisolone, reference compound] | 32.6 | around 50% | – | – | – | –
COC1=C(OC)C(O)C(C/C=C(\C)CC/C=C(\C)CCC=C(C)C)C(C)C1=O (stereo not drawn) [4-hydroxy-2,3-dimethoxy-6-methyl-5(3,7,11-trimethyl-dodeca-2,6,10-trienyl)-cyclohex-2-enone] | – | – | 118.2 | 1.3 | significantly lower titers of anti-dsDNA antinuclear antibodies than those in the negative group | 34
